Activity calls are given as the source filed them. The rule behind the calls is not given here.
Key:
[1] = test system: NCI-H661; test: Induction of apoptosis in human NCI-H661 cells assessed as viable cells at 10 uM after 24 hrs by Annexin V/propidium iodide-staining based flow cytometry (reference value: 96.16 +/- 0.96%); assay type: functional; conditions: NCI-H661, 24 h, read-out: Activity
[2] = test system: NCI-H460; test: Induction of apoptosis in human NCI-H460 cells assessed as late apoptotic cells at 10 uM after 24 hrs by Annexin V/propidium iodide-staining based flow cytometry (reference value: 0.93 +/- 0.04%); assay type: functional
[3] = test system: HeLa; test: Cytotoxicity against human HeLa cells assessed as reduction in cell viability after 72 hrs by MTT assay; assay type: functional, cell-based
[4] = test system: NCI-H661; test: Reduction in ROS generation in human NCI-H661 cells assessed as decrease in DHE positive cells at 10 uM after 24 hrs by DHE-staining based flow cytometry; assay type: functional, cell-based
[5] = test system: NCI-H460; test: Reduction in ROS generation in human NCI-H460 cells assessed as decrease in DHE positive cells at 10 uM after 24 hrs by DHE-staining based flow cytometry; assay type: functional, cell-based
[6] = Induction of apoptosis in human NCI-H460/R cells transfected with MDR assessed as early apoptotic cells at 10 uM after 24 hrs by Annexin V/propidium iodide-staining based flow cytometry (reference value: 0.22 +/- 0.01%); assay type: functional
[7] = test system: A549; test: Reduction in ROS generation in human A549 cells assessed as decrease in DHE positive cells at 10 uM after 24 hrs by DHE-staining based flow cytometry; assay type: functional, cell-based
[8] = test system: NCI-H460; test: Induction of apoptosis in human NCI-H460 cells assessed as early apoptotic cells at 10 uM after 24 hrs by Annexin V/propidium iodide-staining based flow cytometry (reference value: 0.45 +/- 0.01%); assay type: functional
[9] = Cytotoxicity against human NCI-H460/R cells transfected with MDR assessed as reduction in cell viability after 72 hrs by MTT assay; assay type: functional, cell-based; conditions: NCI-H460, 72 h
[10] = test system: NCI-H460; test: Cytotoxicity against human NCI-H460 cells assessed as reduction in cell viability after 72 hrs by MTT assay; assay type: functional, cell-based; conditions: NCI-H460, 72 h
[11] = Induction of apoptosis in human HaCaT cells assessed as viable cells at 10 uM after 24 hrs by Annexin V/propidium iodide-staining based flow cytometry (reference value: 95.63 +/- 3.83%); assay type: cell-based; conditions: read-out: Activity
[12] = test system: HaCaT; test: Reduction in ROS generation in human HaCaT cells assessed as decrease in DHE positive cells at 10 uM after 24 hrs by DHE-staining based flow cytometry; assay type: functional, cell-based
[13] = test system: NCI-H661; test: Induction of apoptosis in human NCI-H661 cells assessed as late apoptotic cells at 10 uM after 24 hrs by Annexin V/propidium iodide-staining based flow cytometry (reference value: 0.95 +/- 0.03%); assay type: functional
[14] = test system: NCI-H460; test: Induction of apoptosis in human NCI-H460 cells assessed as necrotic cells at 10 uM after 24 hrs by Annexin V/propidium iodide-staining based flow cytometry (reference value: 2.13 +/- 0.02%); assay type: functional
[15] = test system: NCI-H661; test: Cytotoxicity against human NCI-H661 cells assessed as reduction in cell viability after 72 hrs by MTT assay; assay type: functional, cell-based; conditions: NCI-H661, 72 h
[16] = Induction of apoptosis in human NCI-H460/R cells transfected with MDR assessed as late apoptotic cells at 10 uM after 24 hrs by Annexin V/propidium iodide-staining based flow cytometry (reference value: 0.84 +/- 0.01%); assay type: functional
[17] = Cytotoxicity against mouse L5178B1 cells transfected with pHa MDR1/A retrovirus assessed as reduction in cell viability after 72 hrs by MTT assay; assay type: functional, cell-based; conditions: MDR1, 72 h
[18] = species: Homo sapiens; test: Reduction in ROS generation in human NCI-H460/R cells transfected with MDR assessed as reduction in DHE positive cells at 10 uM after 24 hrs by DHE-staining based flow cytometry; assay type: functional, cell-based
[19] = Induction of apoptosis in human NCI-H460/R cells transfected with MDR assessed as viable cells at 10 uM after 24 hrs by Annexin V/propidium iodide-staining based flow cytometry (reference value: 95.76 +/- 2.87%); assay type: functional; conditions: NCI-H460, 24 h, read-out: Activity
[20] = test system: HaCaT; test: Induction of apoptosis in human HaCaT cells assessed as late apoptotic cells at 10 uM after 24 hrs by Annexin V/propidium iodide-staining based flow cytometry (reference value: 2.26 +/- 0.09%); assay type: cell-based
[21] = test system: A549; test: Cytotoxicity against human A549 cells assessed as reduction in cell viability after 72 hrs by MTT assay; assay type: functional, cell-based; conditions: A549, 72 h
[22] = test system: A549; test: Induction of apoptosis in human A549 cells assessed as early apoptotic cells at 10 uM after 24 hrs by Annexin V/propidium iodide-staining based flow cytometry (reference value: 0.48 +/- 0.01%); assay type: functional
[23] = test system: A549; test: Induction of apoptosis in human A549 cells assessed as viable cells at 10 uM after 24 hrs by Annexin V/propidium iodide-staining based flow cytometry (reference value: 96.45 +/- 2.89%); assay type: functional; conditions: A549, 24 h, read-out: Activity
[24] = test system: HaCaT; test: DNA protective activity in human HaCaT cells assessed as reduction in H2AX expression at 10 uM after 24 hrs by alexa fluor 488-staining based flow cytometry; assay type: functional, cell-based
[25] = test system: A549; test: Induction of apoptosis in human A549 cells assessed as necrotic cells at 10 uM after 24 hrs by Annexin V/propidium iodide-staining based flow cytometry (reference value: 1.52 +/- 0.05%); assay type: functional
[26] = test system: NCI-H661; test: Induction of apoptosis in human NCI-H661 cells assessed as early apoptotic cells at 10 uM after 24 hrs by Annexin V/propidium iodide-staining based flow cytometry (reference value: 0.31 +/- 0.01%); assay type: functional
[27] = test system: HaCaT; test: Induction of apoptosis in human HaCaT cells assessed as necrotic cells at 10 uM after 24 hrs by Annexin V/propidium iodide-staining based flow cytometry (reference value: 1.88 +/- 0.02%); assay type: cell-based
[28] = test system: HaCaT; test: Cytotoxicity against human HaCaT cells assessed as reduction in cell viability after 72 hrs by MTT assay; assay type: cell-based
[29] = test system: NCI-H460; test: Induction of apoptosis in human NCI-H460 cells assessed as viable cells at 10 uM after 24 hrs by Annexin V/propidium iodide-staining based flow cytometry (reference value: 96.49 +/- 0.96%); assay type: functional; conditions: NCI-H460, 24 h, read-out: Activity
[30] = Cytotoxicity against mouse L5178 cells assessed as reduction in cell viability after 72 hrs by MTT assay; assay type: functional, cell-based; conditions: L5178, 72 h
[31] = species: Homo sapiens; test: DNA protective activity in human NCI-H460/R cells transfected with MDR assessed as increase in H2AX expression at 10 uM after 24 hrs by alexa fluor 488-staining based flow cytometry; assay type: functional, cell-based
[32] = test system: NCI-H661; test: Induction of apoptosis in human NCI-H661 cells assessed as necrotic cells at 10 uM after 24 hrs by Annexin V/propidium iodide-staining based flow cytometry (reference value: 2.58 +/- 0.05%); assay type: functional
[33] = Induction of apoptosis in human NCI-H460/R cells transfected with MDR assessed as necrotic cells at 10 uM after 24 hrs by Annexin V/propidium iodide-staining based flow cytometry (reference value: 3.17 +/- 0.13%); assay type: functional
[34] = test system: NCI-H460; test: DNA protective activity in human NCI-H460 cells assessed as reduction in H2AX expression at 10 uM after 24 hrs by alexa fluor 488-staining based flow cytometry; assay type: functional, cell-based
[35] = test system: HaCaT; test: Induction of apoptosis in human HaCaT cells assessed as early apoptotic cells at 10 uM after 24 hrs by Annexin V/propidium iodide-staining based flow cytometry (reference value: 0.23 +/- 0.01%); assay type: cell-based
[36] = test system: A549; test: Induction of apoptosis in human A549 cells assessed as late apoptotic cells at 10 uM after 24 hrs by Annexin V/propidium iodide-staining based flow cytometry (reference value: 1.54 +/- 0.03%); assay type: functional

COC(=O)/C=C/c1cc(O)ccc1O
viability at 10 µM [1]: 89.4%
Activity [2]: 5.1%
IC50 [3]: 8.51 µM
Activity [4]: Active
Activity [5]: Active
Activity [6]: 0.16%
Activity [7]: Active
Activity [8]: 0.34%
IC50 [9]: 7.05 µM
IC50 [10]: 3.77 µM
viability at 24 h, 10 µM [11]: 91%
Activity [12]: Active
Activity [13]: 3.39%
Activity [14]: 9.92%
IC50 [15]: 4.19 µM
Activity [16]: 2.48%
IC50 [17]: 12.4 µM
Activity [18]: Active
viability at 10 µM [19]: 89.7%
Activity [20]: 2.65%
IC50 [21]: 4.14 µM
Activity [22]: 2.36%
viability at 10 µM [23]: 88.2%
Activity [24]: Active
Activity [25]: 3.78%
Activity [26]: 0.49%
Activity [27]: 5.9%
IC50 [28]: 9.69 µM
viability at 10 µM [29]: 86.6%
IC50 [30]: 5.23 µM
Activity [31]: Active
Activity [32]: 6.69%
Activity [33]: 7.71%
Activity [34]: Active
Activity [35]: 0.5%
Activity [36]: 5.62%

O=Cc1ccc(O)cc1 [4-HYDROXYBENZALDEHYDE]
IC50 [17]: > 150 µM
IC50 [30]: > 150 µM

Reference: ChEMBL document CHEMBL4422633, “Antioxidant-Inspired Drug Discovery: Antitumor Metabolite Is Formed in Situ from a Hydroxycinnamic Acid Derivative upon Free-Radical Scavenging” (J Med Chem, 2019)
